In patent US20070248599A1 (priority 2006, published 2007):

Tests used:
[1] = tested on: N2a-APPsw cells; experiment: Cellular Aβ production in N2a-APPsw cells (Aβ40 ELISA of conditioned medium); format: cell-based, mouse; settings: for Aβ production: recombinant ApoE forms at 10 μg/ml, N2a-APPsw cells (FIG. 5B)
Protocol: Quantification of β-Amyloid40, Neuro-2a cell stably overexpressing APPsw695 was used for detecting of β-Amyloid40. N2a-APPsw cells were grown in Dulbecco's Modified Eagle's medium (DMED) containing 10% fetal bovine serum, 100 U/mL penicillin, and 100 μg/mL streptomycin (GibcoBUR) with 80 μg/mL G418. Cells were cultured in 24-well plates one day before treatment. Transient transfections were done using FeGENE6 (Roche), fresh Optimum medium (Invitrogen) were supplied 5 h after transfection. Same concentration purified Apolipoprotein was added into the fresh medium. Conditioned medium was collected 24 h later. Aβ40 was quantified with sandwich ELISA by using Aβ40 ELISA Kit (Biosource). At least three times assays were done for each condition.
Cellular Aβ40 production. Neuroblastoma N2a-APPsw cells (from Dr. Riqiang Yan, Lerner Research Institute, Cleveland, Ohio) were cultured in 24-well plates in Dulbecco's Modified Eagle's medium (DMED) containing 10% fetal bovine serum, 100 U/mL penicillin, and 100 μg/mL streptomycin (GibcoBUR) with 80 μg/mL G418 one day before use. Transient transfections were done using FeGENE6 (Roche), fresh Optimum medium (Invitrogen) were supplied 5 h after transfection. Apolipoproteins were added in the fresh medium at 10 μg/mL. Conditioned medium was collected 24 h later. Aβ40 was determined in tripcates using Aβ40 ELISA Kit (Biosource). For studying the effect of PTB domain on Aβ production, N2a-APPsw cells were transfected with (0.4 μg/per well for 24 well plate) of PTB-containing vector before subjected to the above procedure.

[2] = tested on: N2a-APPsw cells; experiment: as above; format: cell-based, mouse; settings: for Aβ production: each at 5 μg/mL, 24 h, N2a-APPsw cells (FIG. 5B legend)
[3] = tested on: N2a-APPsw cells transfected with ApoER2 and β-secretase; experiment: Internalization of cell surface proteins (biotinylation, Western blot); format: cell-based, mouse; settings: Western blot of conditioned medium (FIG. 6D)
[4] = tested on: N2a-APPsw cells transfected with ApoER2 and β-secretase; experiment: as above; format: cell-based, mouse
Protocol: Internalization of cell surface proteins. N2a-APPsw cells were transiently tranfected with ApoER2 and β-secretase with Lipfectamine 2000. […] Cells were then placed on ice, rinsed in cold PBS and incubated in PBS containing 1.5 mg/mL sulfo-NHS-LC-biotin (Pierce) for 20 min at 4° C. Cells were rinsed twice in PBS and lysed in 800 μl PBS containing 0.1% SDS, 1% NP40 and a complete protease inhibitor cocktail. Total protein concentration was determined by immunoblotting from an aliquot of 50 μl cell lysate. Biotinylated proteins were recovered with NeutrAvidin agarose (50 μl; Pierce), rinsed three times, eluted in 20 μl SDS-sample buffer at boiling temperature and used for Western-blot. Quantity of bands was determined by optical scanning instruments specified above. For the determination of internalized proteins, cells were prepared as above, rinsed in PBS and then incubated with cold 1.5 mg/mL cleavable biotin reagent in PBS (EZ-Link Sulfo-NHS-SS biotin, Pierce) for 20 min at 4° C. […] Cells were then lysed in 800 μl PBS containing 0.1% SDS, 1% NP40 and a complete protease inhibitor cocktail. After centrifugation, biotinylated proteins were retrieved by incubation with NeutrAvidin agarose (50 μl; Pierce). Isolated proteins were rinsed in buffer three times and boiled in 20 μl sample buffer for Western blots.

[5] = target: T1, human LRP (LDL receptor related protein) (human, UniProt Q07954 20-4544); experiment: co-IP from HEK293 lysate, Western blot
T1 construct: whole, on cells; Expressed in HEK293 cells in place of ApoER2 and assayed in lysate
Protocol: KPI is a Kunitz protease inhibitor domain. In ApoER2, the alternative spliced 59-residue insertion is shown in blue. […] Experimental conditions same as in FIG. 7A.
Co-immunoprecipitation and Western Blot Assays. […] 36 h after transfection, cells were harvested and lysed on ice in lysis buffer (PBS, pH 7.4 with 1% NP-40 and 1% Saponin with protease inhibitors cocktail (Roche)). Cell lysates were cleared by centrifugation and immunoprecipitated with indicated antibody for 4 h at 4° C. Immune complexes were isolated using protein G-agarose beads (Sigma) and subjected to SDS-PAGE and Western blotting using specific antibodies.

[6] = 10 μg/mL, internalization 15 min at 37° C. (FIG. 6B)

T1 sequence (Q07954 20-4544): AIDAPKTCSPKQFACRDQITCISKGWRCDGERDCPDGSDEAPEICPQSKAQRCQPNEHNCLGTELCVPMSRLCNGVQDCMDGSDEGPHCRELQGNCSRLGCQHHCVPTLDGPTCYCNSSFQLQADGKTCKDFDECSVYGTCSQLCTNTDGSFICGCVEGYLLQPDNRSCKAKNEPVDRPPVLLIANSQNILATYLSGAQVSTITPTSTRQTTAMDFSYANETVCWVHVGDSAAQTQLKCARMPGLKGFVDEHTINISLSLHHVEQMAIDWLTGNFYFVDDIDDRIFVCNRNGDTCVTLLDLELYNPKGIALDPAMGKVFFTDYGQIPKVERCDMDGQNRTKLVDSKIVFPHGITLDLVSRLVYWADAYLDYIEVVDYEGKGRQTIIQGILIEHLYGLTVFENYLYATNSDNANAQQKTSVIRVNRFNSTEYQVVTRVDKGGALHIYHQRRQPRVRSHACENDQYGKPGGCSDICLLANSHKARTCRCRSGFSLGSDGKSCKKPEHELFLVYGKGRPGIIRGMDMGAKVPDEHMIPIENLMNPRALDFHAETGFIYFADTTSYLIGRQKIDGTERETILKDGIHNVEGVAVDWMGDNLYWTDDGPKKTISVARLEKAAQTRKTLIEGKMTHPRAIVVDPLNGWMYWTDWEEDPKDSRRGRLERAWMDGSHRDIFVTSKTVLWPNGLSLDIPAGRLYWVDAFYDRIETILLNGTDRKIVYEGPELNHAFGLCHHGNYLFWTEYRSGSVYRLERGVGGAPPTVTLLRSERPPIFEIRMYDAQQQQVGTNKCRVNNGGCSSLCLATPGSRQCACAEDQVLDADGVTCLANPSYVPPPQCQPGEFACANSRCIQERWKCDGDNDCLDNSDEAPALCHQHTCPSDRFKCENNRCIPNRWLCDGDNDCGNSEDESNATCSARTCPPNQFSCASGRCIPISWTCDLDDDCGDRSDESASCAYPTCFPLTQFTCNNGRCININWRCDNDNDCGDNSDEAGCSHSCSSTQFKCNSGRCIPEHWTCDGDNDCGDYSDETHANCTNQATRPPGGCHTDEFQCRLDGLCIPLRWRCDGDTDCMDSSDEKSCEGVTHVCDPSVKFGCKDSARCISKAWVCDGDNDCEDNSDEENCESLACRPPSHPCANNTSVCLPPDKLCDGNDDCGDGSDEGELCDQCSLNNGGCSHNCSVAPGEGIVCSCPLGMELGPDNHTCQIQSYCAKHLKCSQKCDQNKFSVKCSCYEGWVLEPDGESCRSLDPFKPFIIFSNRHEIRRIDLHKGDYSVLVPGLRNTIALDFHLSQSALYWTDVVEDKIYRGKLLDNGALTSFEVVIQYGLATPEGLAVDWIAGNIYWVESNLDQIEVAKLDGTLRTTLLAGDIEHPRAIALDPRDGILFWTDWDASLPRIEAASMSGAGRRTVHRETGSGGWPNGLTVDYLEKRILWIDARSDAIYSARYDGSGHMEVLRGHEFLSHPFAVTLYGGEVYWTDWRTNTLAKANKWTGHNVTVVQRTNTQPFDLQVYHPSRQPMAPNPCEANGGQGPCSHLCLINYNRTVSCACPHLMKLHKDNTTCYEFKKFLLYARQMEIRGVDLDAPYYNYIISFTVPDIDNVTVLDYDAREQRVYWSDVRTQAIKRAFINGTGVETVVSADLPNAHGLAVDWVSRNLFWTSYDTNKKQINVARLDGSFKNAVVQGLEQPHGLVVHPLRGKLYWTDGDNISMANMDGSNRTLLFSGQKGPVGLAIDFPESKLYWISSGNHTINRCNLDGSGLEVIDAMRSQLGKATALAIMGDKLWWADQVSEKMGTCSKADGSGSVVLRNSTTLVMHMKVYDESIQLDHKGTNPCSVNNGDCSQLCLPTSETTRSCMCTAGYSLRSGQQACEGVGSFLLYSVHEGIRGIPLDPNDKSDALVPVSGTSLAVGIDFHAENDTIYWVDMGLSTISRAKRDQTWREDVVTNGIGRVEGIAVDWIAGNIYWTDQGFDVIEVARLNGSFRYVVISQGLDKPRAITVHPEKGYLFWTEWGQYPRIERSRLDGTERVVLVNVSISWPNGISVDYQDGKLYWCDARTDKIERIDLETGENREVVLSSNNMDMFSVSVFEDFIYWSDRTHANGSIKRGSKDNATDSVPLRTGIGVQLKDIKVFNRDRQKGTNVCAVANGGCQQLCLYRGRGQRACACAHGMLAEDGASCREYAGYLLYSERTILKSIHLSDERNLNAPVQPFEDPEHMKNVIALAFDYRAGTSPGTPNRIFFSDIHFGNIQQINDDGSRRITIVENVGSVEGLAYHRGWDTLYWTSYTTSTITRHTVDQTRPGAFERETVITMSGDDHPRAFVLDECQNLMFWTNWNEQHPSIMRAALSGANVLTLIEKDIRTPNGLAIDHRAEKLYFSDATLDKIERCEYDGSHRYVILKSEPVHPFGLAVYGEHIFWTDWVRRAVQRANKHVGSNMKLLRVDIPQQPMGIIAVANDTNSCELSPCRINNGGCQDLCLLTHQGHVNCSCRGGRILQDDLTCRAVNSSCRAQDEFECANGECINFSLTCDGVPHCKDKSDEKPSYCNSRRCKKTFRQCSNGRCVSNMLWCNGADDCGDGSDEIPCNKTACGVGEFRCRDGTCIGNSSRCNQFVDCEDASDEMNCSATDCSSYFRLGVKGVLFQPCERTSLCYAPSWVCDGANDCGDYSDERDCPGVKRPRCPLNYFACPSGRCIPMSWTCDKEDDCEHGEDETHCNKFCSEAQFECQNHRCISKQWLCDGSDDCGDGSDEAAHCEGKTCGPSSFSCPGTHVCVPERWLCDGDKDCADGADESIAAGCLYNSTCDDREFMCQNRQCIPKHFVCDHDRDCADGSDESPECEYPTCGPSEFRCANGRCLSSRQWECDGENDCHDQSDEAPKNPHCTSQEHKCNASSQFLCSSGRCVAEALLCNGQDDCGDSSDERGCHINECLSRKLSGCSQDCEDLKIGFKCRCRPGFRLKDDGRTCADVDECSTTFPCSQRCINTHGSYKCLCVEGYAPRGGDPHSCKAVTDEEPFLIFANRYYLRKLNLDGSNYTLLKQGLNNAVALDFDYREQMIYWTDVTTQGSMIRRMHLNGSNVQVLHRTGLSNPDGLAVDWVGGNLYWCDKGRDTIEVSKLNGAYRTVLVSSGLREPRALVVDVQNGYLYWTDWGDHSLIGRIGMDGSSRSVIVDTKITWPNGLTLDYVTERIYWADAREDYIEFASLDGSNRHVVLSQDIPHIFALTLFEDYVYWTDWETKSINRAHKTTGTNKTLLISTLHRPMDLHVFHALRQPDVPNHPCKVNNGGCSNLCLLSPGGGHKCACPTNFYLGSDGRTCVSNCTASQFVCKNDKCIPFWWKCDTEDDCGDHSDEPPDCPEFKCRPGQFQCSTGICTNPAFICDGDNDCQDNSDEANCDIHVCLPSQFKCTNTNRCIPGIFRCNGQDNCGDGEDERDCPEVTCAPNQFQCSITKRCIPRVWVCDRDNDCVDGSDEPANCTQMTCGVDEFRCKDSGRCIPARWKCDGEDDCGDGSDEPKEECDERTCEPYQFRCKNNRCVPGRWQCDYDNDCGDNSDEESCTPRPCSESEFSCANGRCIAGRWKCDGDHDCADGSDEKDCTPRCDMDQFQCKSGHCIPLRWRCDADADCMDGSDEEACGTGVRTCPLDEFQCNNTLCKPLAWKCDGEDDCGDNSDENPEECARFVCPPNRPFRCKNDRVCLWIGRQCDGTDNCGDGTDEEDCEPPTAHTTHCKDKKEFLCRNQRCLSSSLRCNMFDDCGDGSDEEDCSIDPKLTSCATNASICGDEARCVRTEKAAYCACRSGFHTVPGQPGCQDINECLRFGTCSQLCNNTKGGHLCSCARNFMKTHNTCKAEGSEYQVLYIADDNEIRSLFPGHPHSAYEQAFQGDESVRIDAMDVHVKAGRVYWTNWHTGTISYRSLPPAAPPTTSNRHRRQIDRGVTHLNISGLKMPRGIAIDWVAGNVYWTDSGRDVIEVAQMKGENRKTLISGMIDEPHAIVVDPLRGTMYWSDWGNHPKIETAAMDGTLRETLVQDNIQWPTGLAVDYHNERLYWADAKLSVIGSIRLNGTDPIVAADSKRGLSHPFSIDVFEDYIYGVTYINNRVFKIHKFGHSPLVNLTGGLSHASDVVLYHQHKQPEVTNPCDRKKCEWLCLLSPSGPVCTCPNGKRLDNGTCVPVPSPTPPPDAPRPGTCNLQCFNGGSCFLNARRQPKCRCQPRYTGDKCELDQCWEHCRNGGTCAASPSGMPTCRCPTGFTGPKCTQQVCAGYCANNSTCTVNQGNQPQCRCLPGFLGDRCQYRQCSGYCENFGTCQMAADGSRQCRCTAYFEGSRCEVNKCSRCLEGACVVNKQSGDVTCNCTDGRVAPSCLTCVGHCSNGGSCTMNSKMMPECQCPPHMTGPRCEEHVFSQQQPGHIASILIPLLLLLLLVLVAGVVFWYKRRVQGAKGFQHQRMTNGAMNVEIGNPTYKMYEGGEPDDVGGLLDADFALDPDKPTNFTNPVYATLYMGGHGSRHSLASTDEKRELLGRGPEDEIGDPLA

For “ApoE2: recombinant ApoE isoform with cysteine at residue 158, from Alpha Diagnostic”, the Aβ production [1] was “increased Aβ production” and the Aβ production [2] was “increased Aβ production”.

With “ApoE3: recombinant ApoE isoform, the reference sequence, from Alpha Diagnostic” the Aβ production [1] was “increased Aβ production” and the Aβ production [2] was “increased Aβ production”.

In the case of “ApoE: purified human apolipoprotein E, purchased from Biodesign / Alpha Diagnostic”, the “Aβ production in cells transfected with ApoER2 versus without” value ([1]; N2a-APPsw cells (FIG. 5D)) is reported as “produced more Aβ”, the “Aβ40 increase in cells transfected with ApoER2 versus blank vectors” value ([2]; 5 μg/mL, N2a APPsw cells, p<0.05 (FIG. 4)) is reported as “increase of Aβ40 at a greater extent” and the “Aβ40 levels in medium” value ([2]; 5 μg/mL, blank vector transfected N2a APPsw cells vs control (FIG. 4)) is reported as “increased over that in the control cells”. The Aβ production [2] was “increased Aβ production”, the “APP ectodomain generated by ∝-secretase, s∝-APP” value [3] was “reduction” and the “total amounts of ApoER2, APP and β-secretase in the cell lysates” value ([4]; 10 μg/mL, 2 h) was “remained about the same”. The “decrease of remaining cell-surface β-secretase” value ([4]; 10 μg/mL, 2 h, compared to controls (FIG. 6A)) was about 7%, the “increase of intracellular APP” value [4, 6] was “about 2.5 fold” and the “increase of intracellular ApoER2” value [4, 6] was “small increases”. The “increase of intracellular β-secretase” value [4, 6] was “small increases” and the “intracellular APP C-terminal fragment C99” value ([4]; Western blot, over the control (FIG. 6C)) was “significantly increased”.

B1: human X11α (other)
chain: MNHLEGSAEVEVTDEAAGGEVNESVEADLEHPEVEEEQQQPPQQQHYVGRHQRGRALEDLRAQLGQEEEERGECLARSASTESGFHNHTDTAEGDVIAAARDGYDAERAQDPEDESAYAVQYRPEAEEYTEQAEAEHAEATHRRALPNHLHFHSLEHEEAMNAAYSGYVYTHRLFHRGEDEPYSEPYADYGGLQEHVYEEIGDAPELDARDGLRLYEQERDEAAAYRQEALGARLHHYDERSDGESDSPEKEAEFAPYPRMDSYEQEEDIDQIVAEVKQSMSSQSLDKAAEDMPEAEQDLERPPTPAGGRPDSPGLQAPAGQQRAVGPAGGGEAGQRYSKEKRDAISLAIKDIKEAIEEVKTRTIRSPYTPDEPKEPIWVMRQDISPTRDCDDQRPMDGDSPSPGSSSPLGAESSSTSLHPSDPVEASTNKESRKSLASFPTYVEVPGPCDPEDLIDGIIFAANYLGSTQLLSDKTPSKNVRMMQAQEAVSRIKMAQKLAKSRKKAPEGESQPMTEVDLFISTQRIKVLNADTQETMMDHPLRTISYIADIGNIVVLMARRRMPRSNSQENVEASHPSQDGKRQYKMICHVFESEDAQLIAQSIGQAFSVAYQEFLRANGINPEDLSQKEYSDLLNTQDMYNDDLIHFSKSENCKDVFIEKQKGEILGVVIVESGWGSILPTVIIANMMHGGPAEKSGKLNIGDQIMSINGTSLVGLPLSTCQSIIKGLKNQSRVKLNIVRCPPVTTVLIRRPDLRYQLGFSVQNGIICSLMRGGIAERGGVRVGHRIIEINGQSVVATPHEKIVHILSNAVGEIHMKTMPAAMYRLLTAQEQPVYI
notes: Adaptor protein expressed from a cDNA vector in HEK293 cells and assayed in lysate; the vector came from an outside laboratory; also called X11α/β
B1: no binding [5].

B2: PTB domain of X11α (residue 457-751) expressed from pcDNA6 (other)
chain: DGIIFAANYLGSTQLLSDKTPSKNVRMMQAQEAVSRIKMAQKLAKSRKKAPEGESQPMTEVDLFISTQRIKVLNADTQETMMDHPLRTISYIADIGNIVVLMARRRMPRSNSQENVEASHPSQDGKRQYKMICHVFESEDAQLIAQSIGQAFSVAYQEFLRANGINPEDLSQKEYSDLLNTQDMYNDDLIHFSKSENCKDVFIEKQKGEILGVVIVESGWGSILPTVIIANMMHGGPAEKSGKLNIGDQIMSINGTSLVGLPLSTCQSIIKGLKNQSRVKLNIVRCPPVTTVLIR
notes: Expressed in cells from pcDNA6; also called separately expressed PTB domain of X11α
B2: no binding [5].
